Measured values taken from patent publication US20230332232A1, “COMPOSITIONS AND METHODS FOR DIAGNOSING AND TREATING A DYSTONIA” (Duke University, priority 2020, published 2023).

Tested on: DYT1 knockin (Tor1a^delGAG/+) murine embryonic fibroblasts (MEFs)
Experiment: microRNA-seq of EVs from DYT1 MEFs treated with drug, compared with non-treated DYT1 MEFs
Assay type: cell-based, mouse
Method: In addition to proteomic analysis, total RNA-seq and microRNA-seq was performed on RNA isolated in parallel from the EV samples of Cohort 2. As with the proteomic analysis, one biological replicate was prepared from 3 distinct biological clonal cell lines for each genotype. Here, EVs were isolated from conditioned cell culture media by 18 hour ultracentrifugation at 100,000 g. RNA was extracted using the Qiagen miRNeasy Micro Kit (Cat. No. 217084) according to the manufacturer's protocol. Two RNA fractions were extracted from each sample, one enriched in coding and non-coding RNA species>200 nt (“Total RNA” fraction) and one enriched for small RNAs<200 nt (“miRNA” fraction). RNA samples were then submitted to the Duke Sequencing and Genomic Technologies shared resource for further quality control and sequencing. Samples were assessed for concentration and integrity by Qubit and Fragment Analyzer. The miRNA fractions were 4.16 ng/μL-47.57 ng/μL and total RNA fractions were 3.8 ng/μL-43.6 ng/μL. The small RNA library was prepared using the QIAseq miRNA Library Kit (Cat No./ID: 331505) and sequenced on the Illumina NextSeq 500 High-Output platform with 75 bp single-reads. The total RNA library was prepared using the Illumina TruSeq Stranded Total RNA-seq Kit with Ribozero Gold ribosomal RNA reduction and sequenced on the Illumina NovaSeq 6000 S1 platform with 100 bp paired-end reads. Sequencer lane pooling and read depth are attached in the Excel data summary (See “RNA QC” Tab). Data processing and analysis were performed in collaboration with the Duke Genomic Analysis and Bioinformatics shared resource. RNA-seq data was processed using the TrimGalore toolkit (http://www.bioinformatics.babraham.ac.uk/projects/trim_galore), which employs Cutadapt(Martin M. (2011) EMBnet.journal. 17(1):10-12) to trim low quality bases and Illumina sequencing adapters from the 3' end of the reads. Only reads that were 20 nt or longer after trimming were kept for further analysis. Reads were mapped to the mouse genome and transcriptome ([…], et al. (2012) Nucleic Acids Res. 40(Database issue):[…]-97) using the STAR RNA-seq alignment tool (Dobin A, et al. (2013). Bioinformatics. 29(1):15-21). If the reads mapped to a single genomic location, then they were kept for subsequent analysis. Gene counts were compiled using the HTSeq tool (http://www-huber.embl.de/users/anders/HTSeq/). Only genes that had at least 10 reads in any given library were used in subsequent analysis. Normalization and differential expression was carried out using the DESeq26 Bioconductor (Huber W, et al. (2015) Nat Methods. 12(2):115-121) package with the R statistical programming environment (www.r-project.org). […] 694 miRNAs were initially examined with respect to QC, genotype, RTV effects, and ISRIB effects. This subset was the “Full miRNA” subset. FIG. 9A and FIG. 9B show the RTV effect on EV composition in DYT1 cells compared to WT cells for 279 miRNAs, respectively. […] Beginning with the 694 miRNAs in the “Full miRNA” subset, more than 60 molecules were detected in either WT cells or DYT1 cells (WT or Het UMI>60). […] The candidate miRNAs were ranked by the sum of genotype-dependent absolute Z-scores and RTV-induced absolute Z-scores (Abs Z Score Sum (Geno+RTV)). This subset was the “miRNA-Ritonavir Therapeutic Efficacy” subset and contained 201 miRNAs.

[1] = RTV-treated vs non-treated DYT1 (Het) MEF EVs
[2] = mmu-miR-34a-5p, EVs of DYT1 (Het) MEFs
[3] = mmu-miR-34c-5p, EVs of DYT1 (Het) MEFs
[4] = mmu-miR-96-5p, EVs of DYT1 (Het) MEFs
[5] = mmu-miR-125b-1-3p, EVs of DYT1 (Het) MEFs
[6] = mmu-miR-130b-3p, EVs of DYT1 (Het) MEFs
[7] = mmu-miR-140-3p, EVs of DYT1 (Het) MEFs
[8] = mmu-miR-148a-3p, EVs of DYT1 (Het) MEFs
[9] = mmu-miR-182-5p, EVs of DYT1 (Het) MEFs

CC(C)c1nc(CN(C)C(=O)N[C@H](C(=O)N[C@@H](Cc2ccccc2)C[C@H](O)[C@H](Cc2ccccc2)NC(=O)OCc2cncs2)C(C)C)cs1 [RTV, Ritonavir]
direction of modulated EV miRNA expression (DYT1 cells, miRNA-Ritonavir Therapeutic Efficacy subset, 201 miRNAs): modulated expression in a therapeutic direction
RTV Direction Opposite dE? (EV miRNA mmu−let−7c−5p (housekeeping)): yes
RTV Direction Opposite dE? (EV miRNA mmu−miR−22−3p): yes
RTV Direction Opposite dE? (EV miRNA mmu−miR−34a−5p): yes
RTV Direction Opposite dE? (EV miRNA mmu−miR−96−5p): yes
RTV Direction Opposite dE? (EV miRNA mmu−miR−135a−5p): yes
RTV Direction Opposite dE? (EV miRNA mmu−miR−182−5p): yes
RTV Direction Opposite dE? (EV miRNA mmu−miR−183−5p): yes
RTV Direction Opposite dE? (EV miRNA mmu−miR−199a−3p): yes
RTV Direction Opposite dE? (EV miRNA mmu−miR−296−3p): yes
RTV Direction Opposite dE? (EV miRNA mmu−miR−542−5p): yes
mmu-miR-147-5p: RTVvHet Z Score [1]: −0.07
mmu-miR-181a-1-3p: RTVvHet Z Score [1]: 0.08
mmu-miR-331-5p: RTVvHet Z Score [1]: 0.00
mmu-miR-668-3p: RTVvHet Z Score [1]: 0.31
mmu-miR-1930-5p: RTVvHet Z Score [1]: 0.00
mmu-miR-1943-5p: RTVvHet Z Score [1]: 0.23
mmu-miR-1955-5p: RTVvHet Z Score [1]: 0.00
mmu-miR-3072-5p: RTVvHet Z Score [1]: −0.38
mmu-miR-3076-3p: RTVvHet Z Score [1]: 0.00
mmu-miR-3088-3p: RTVvHet Z Score [1]: 0.18
mmu-miR-6936-3p: RTVvHet Z Score [1]: 0.00
mmu-miR-7224-3p: RTVvHet Z Score [1]: −0.17
mmu-miR-467d-3p: RTVvHet Z Score [1]: −0.11
RTVvHet Z Score (mmu-let-7a-1-3p): 0.62
RTVvHet Z Score (mmu-let-7c-2-3p): 0.62
RTV Direction Opposite dE? (mmu-let-7f-5p, EVs of DYT1 (Het) MEFs): yes
RTVvHet Z Score (mmu-let-7g-5p): 0.50
RTVvHet Z Score (mmu-let-7i-3p): 1.15
RTV Direction Opposite dE? (mmu-let-7i-5p, EVs of DYT1 (Het) MEFs): yes
RTV Direction Opposite dE? (mmu-miR-30e-5p, EVs of DYT1 (Het) MEFs): yes
RTVvHet Z Score (mmu-miR-30e-3p): 0.49
RTVvHet Z Score (mmu-miR-15a-5p): 0.22
RTVvHet Z Score (mmu-miR-16-5p): 0.21
RTVvHet Z Score (mmu-miR-17-3p): 0.02
RTV Direction Opposite dE? (mmu-miR-19b-3p, EVs of DYT1 (Het) MEFs): yes
RTVvHet Z Score (mmu-miR-22-3p): 1.26
RTV Direction Opposite dE? (mmu-miR-22-3p, EVs of DYT1 (Het) MEFs): yes
RTVvHet Z Score (mmu-miR-23a-3p): 0.46
RTVvHet Z Score (mmu-miR-25-3p): 0.71
RTV Direction Opposite dE? (mmu-miR-26b-Sp, EVs of DYT1 (Het) MEFs): yes
RTVvHet Z Score (mmu-miR-29b-3p): 0.53
RTVvHet Z Score (mmu-miR-29c-3p): 1.17
RTVvHet Z Score (mmu-miR-30a-5p): 0.97
RTV Direction Opposite dE? (mmu-miR-30a-5p, EVs of DYT1 (Het) MEFs): yes
RTVvHet Z Score (mmu-miR-30b-5p): 1.23
RTVvHet Z Score (mmu-miR-30c-5p (1st line so named)): 1.38
RTVvHet Z Score (mmu-miR-30c-5p (2nd line so named)): 1.07
RTV Direction Opposite dE? (mmu-miR-30c-5p, EVs of DYT1 (Het) MEFs): yes
RTVvHet Z Score (mmu-miR-31-3p): 0.83
RTVvHet Z Score (mmu-miR-31-5p): 1.41
RTV Direction Opposite dE? (mmu-miR-31-5p, EVs of DYT1 (Het) MEFs): yes
RTVvHet Z Score (mmu-miR-32-5p): 0.75
RTVvHet Z Score (mmu-miR-33-5p): 1.52
RTVvHet Z Score (mmu-miR-34a-5p): 1.38
Abs Z Score Sum (Geno + RTV) [2]: 3.80
RTV Direction Opposite dE? [2]: yes
RTVvHet Z Score (mmu-miR-34b-5p): 1.55
RTVvHet Z Score (mmu-miR-34c-3p): 0.78
RTVvHet Z Score (mmu-miR-34c-5p): 1.33
Abs Z Score Sum (Geno + RTV) [3]: 3.36
RTV Direction Opposite dE? [3]: yes
RTV Direction Opposite dE? (mmu-miR-93-5p, EVs of DYT1 (Het) MEFs): yes
RTVvHet Z Score (mmu-miR-96-5p): 3.10
Abs Z Score Sum (Geno + RTV) [4]: 5.01
RTV Direction Opposite dE? [4]: yes
RTVvHet Z Score (mmu-miR-98-5p): 0.42
RTVvHet Z Score (mmu-miR-99a-5p): 0.73
RTVvHet Z Score (mmu-miR-101b-3p): 0.52
RTV Direction Opposite dE? (mmu-miR-103-3p, EVs of DYT1 (Het) MEFs): yes
RTVvHet Z Score (mmu-miR-106b-3p): 0.15
RTVvHet Z Score (mmu-miR-106b-5p): 0.54
RTVvHet Z Score (mmu-miR-124-3p): −1.59
RTVvHet Z Score (mmu-miR-125b-1-3p): 1.02
Abs Z Score Sum (Geno + RTV) [5]: 3.85
RTV Direction Opposite dE? [5]: yes
RTVvHet Z Score (mmu-miR-130b-3p): 1.50
Abs Z Score Sum (Geno + RTV) [6]: 3.92
RTV Direction Opposite dE? [6]: yes
RTV Direction Opposite dE? (mmu-miR-135a-5p, EVs of DYT1 (Het) MEFs): yes
RTVvHet Z Score (mmu-miR-136-3p): 1.52
RTVvHet Z Score (mmu-miR-140-3p): 2.54
Abs Z Score Sum (Geno + RTV) [7]: 4.39
RTV Direction Opposite dE? [7]: yes
RTVvHet Z Score (mmu-miR-146a-5p): 0.10
RTVvHet Z Score (mmu-miR-148a-3p): 1.86
Abs Z Score Sum (Geno + RTV) [8]: 3.69
RTV Direction Opposite dE? [8]: yes
RTVvHet Z Score (mmu-miR-148b-3p): 0.58
RTVvHet Z Score (mmu-miR-149-5p): 0.33
RTVvHet Z Score (mmu-miR-151-5p): 0.32
RTVvHet Z Score (mmu-miR-152-3p): 0.76
RTVvHet Z Score (mmu-miR-181a-5p): 0.31
RTVvHet Z Score (mmu-miR-181b-5p): 0.54
RTVvHet Z Score (mmu-miR-181c-5p): 0.88
RTVvHet Z Score (mmu-miR-182-5p): 5.33
Abs Z Score Sum (Geno + RTV) [9]: 7.27
RTV Direction Opposite dE? [9]: yes
